{
  "source": "patent US20070191292A1",
  "about": "“Antimycotic rhamnolipid compositions and related methods of use” (priority 2006, published 2007)",
  "key": {"[1]": {"test_system": "Saccharomyces cerevisiae SRE resistant mutant strains Δsmr1,Δsyr2,Δipt1, Δelo2,Δelo3,Δfah1", "assay": "Replica plate growth inhibition, sphingolipid and sterol biosynthetic mutants", "format": "cell-based", "conditions": "parent strains 8A-1B, W303, BY4741", "source_text": "To investigate the mechanism of action of SYRA, Saccharomyces cerevisiae sphingolipid and sterol biosynthetic mutants were used. Saccharomyces cerevisiae parent strains 8A-1B, W303, BY4741 and SRE resistant mutant strains Δsmr1,Δsyr2,Δipt1, Δelo2,Δelo3,Δfah1 were utilized, as described previously (Stock, S. D., H. Hama, J. A. Radding, D. A. Young, and J. Y. Takemoto. 2000. Syringomycin E inhibition of Saccharomyces cerevisiae: requirement for biosynthesis of sphingolipids with very-long-chain fatty acids and mannose- and phosphoinositol-containing head groups. Antimicrob. Agents Chemother. 44:1174-80.). For growth inhibition, a replica plate method was used (Hama, J., D. A. Young, J. A. Radding, D. Ma, J. Tang, S. D. Stock, and J. Y. Takemoto. 2000. Requirement of sphingolipid alpha-hydroxylation for fungicidal action of syringomycin E. FEBS Lett. 478:26-8). Fresh cells were replica plated onto yeast extract-peptone-dextrose (YPD) agar containing different concentrations of SYRA. Growth with and without SYRA addition were compared to determine relative sensitivity."}, "[2]": {"test_system": "a variety of yeast and fungi", "assay": "Antifungal activities against a variety of yeast and fungi (Table 1)", "format": "cell-based", "conditions": "component alone; Tables 1 and 2", "source_text": "(§1) The checkerboard method is used frequently to evaluate antimicrobial combinations in vitro (Lorian, V., M. D. 1996. Antibiotics in Laboratory Medicine, 4th ed.). The tests were easily performed at the laboratory level by using the microdilution method. The results obtained from this study provided a better understanding of the nature of the interaction between SRE and rhamnolipids.\nThe checkerboard method is described by Sabath et al. (Sabath, L. D. 1967. Synergy of antibacterial substances by apparently known mechanisms. Antimicrob. Agents Chemother. 7:210-7.) and Garrod et al. (Garrod L. P. and P. M. Waterworth. 1962. Methods of testing combined antibiotic bactericidal action and the significance of the results. J. Clin. Pathol. 15:328-38.). A 96-well plate was used to determine the fractional inhibitory concentrations (FICs). Serial twofold dilutions of SRE and rhamnolipids were prepared separately. […] The plate was incubated at 35° C. for 24-72 h. and the FICs were calculated using the equation: (A/MICa)+(B/MICb)=FICa+FICb=FIC index, where A and B are concentrations of SRE and rhamnolipids, MICa and MICb are the minimum inhibitory concentrations, and FICa and FICb are the fractional inhibitory concentrations of SRE and rhamnolipids, respectively. […]"}, "8A-1B": {"test_system": "8A-1B", "assay": "Disk diffusion, zone of inhibition", "format": "cell-based, Saccharomyces cerevisiae", "method": "(§2) Disk diffusion methods similar to those described by the NCCLS protocols for antifungal testing (Washington, G. L. W. a. J. A. 1995. Antibacterial Susceptibility Tests: Dilution and Disk Diffusion Methods, p. 1327-1341. in P. R. Murray (ed.), Manual of Clinical Microbiology, sixth ed.) were used. FIGS. 2(A) through 2(D) illustrate typically observed result assessments for antimicrobial combinations using the disk diffusion method.\n(§3) Tested fungi, utilized in the examples that follow, were grown in RPMI Medium and adjusted to 5×10^4 CFU/ml, and transferred onto solid agar medium of the appropriate growth medium. The cultures were spread over the surface as a thin film. Four millimeter-diameter sterilized paper disks were deposited on the surface and syringomycin E and rhamnolipids were applied on disk 1 and disk 2, respectively (in approximately about 7 to about 10 μl aliquots). The distance between the disks was equal to the sum of radii of zones of inhibition of the drugs applied alone. The plates were incubated at approximately 35° C. for approximately 24-72 h."}, "W303C": {"test_system": "W303C", "assay": "Disk diffusion, zone of inhibition", "format": "cell-based, Saccharomyces cerevisiae", "method": "as §2, §3"}, "R.pilimanae": {"test_system": "R.pilimanae", "format": "cell-based, Rhodotorula pilimanae", "method": "as §2, §3\n(§4) SYRA was obtained by mixing SRE and rhamnolipids at different relative concentrations. SYRA was tested against a variety of yeasts and fungi and the zone of inhibition was measured as described with reference to Examples 2A and 2B."}, "Rhodotorula pilimanae": {"test_system": "Rhodotorula pilimanae", "format": "cell-based", "conditions": "SRE alone (0.5 mg/ml solution, diluted)", "source_text": "as §1\n(§5) The checkerboard method is described by Sabath et al. (Sabath, L. D. 1967. Synergy of antibacterial substances by apparently known mechanisms. Antimicrob. Agents Chemother. 7:210-7.) and Garrod et al. (Garrod L. P. and P. M. Waterworth. 1962. Methods of testing combined antibiotic bactericidal action and the significance of the results. J. Clin. Pathol. 15:328-38.). A 96-well plate was used to determine the fractional inhibitory concentrations (FICs). Serial twofold dilutions of SRE and rhamnolipids were prepared separately. Then 25 μl of different concentrations of syringomycin are added in a vertical orientation and the rhamnolipids were added in horizontal orientation. The final volume of the well contained 50 μl of the subject composition and 50 μl of the tested culture. The plate was incubated at 35° C. for 24-72 h. and the FICs were calculated using the equation: (A/MICa)+(B/MICb)=FICa+FICb=FIC index, where A and B are concentrations of SRE and rhamnolipids, MICa and MICb are the minimum inhibitory concentrations, and FICa and FICb are the fractional inhibitory concentrations of SRE and rhamnolipids, respectively.\n(§6) SRE and Rh solutions were prepared, at the concentrations shown (mg/ml), then diluted and used to determine the minimum inhibitory concentration (MIC, μg/ml) of each, alone and in composition with the other (SYRA and SYRA2). […] Beneficial effects against the other organisms tested are evidenced by examination and analysis of the corresponding data."}, "Rhizoctonia solani": {"test_system": "Rhizoctonia solani", "format": "cell-based", "conditions": "SRE alone (0.5 mg/ml solution, diluted)", "source_text": "as §1, §5, §6"}, "Candida albicans": {"test_system": "Candida albicans", "format": "cell-based", "conditions": "SRE alone (0.5 mg/ml solution, diluted)", "source_text": "as §1, §5, §6"}, "Cladosporium sp": {"test_system": "Cladosporium sp", "format": "cell-based", "conditions": "SRE alone (0.5 mg/ml solution, diluted)", "source_text": "as §1, §5, §6"}, "Fusarium oxysporum": {"test_system": "Fusarium oxysporum", "format": "cell-based", "conditions": "SRE alone (0.5 mg/ml solution, diluted)", "source_text": "as §1, §5, §6"}, "Botrytis sp": {"test_system": "Botrytis sp", "format": "cell-based", "conditions": "SRE alone (0.5 mg/ml solution, diluted)", "source_text": "as §1, §5, §6"}, "Aspergillus flavus": {"test_system": "Aspergillus flavus", "format": "cell-based", "conditions": "SRE alone (0.5 mg/ml solution, diluted)", "source_text": "as §1, §5, §6"}, "Penicillium sp1": {"test_system": "Penicillium sp1", "format": "cell-based", "conditions": "SRE alone (0.5 mg/ml solution, diluted)", "source_text": "as §1, §5, §6"}, "Rhizopus stonifer": {"test_system": "Rhizopus stonifer", "format": "cell-based", "conditions": "SRE alone (0.5 mg/ml solution, diluted)", "source_text": "as §1, §5, §6"}, "Penicillium sp2": {"test_system": "Penicillium sp2", "format": "cell-based", "conditions": "SRE alone (0.5 mg/ml solution, diluted)", "source_text": "as §1, §5, §6"}, "BY4741": {"test_system": "BY4741", "format": "cell-based, Saccharomyces cerevisiae", "method": "as §2, §3, §4"}},
  "note": "Where two headings read alike, the source gives them in different places. Bridge positions count the residues as written; N and C are the ends. Square brackets hold non-standard residues; d marks the D form. Peptide text beside a SMILES is read from it. * marks the point of attachment. Asp(3S-OH) = N[C@H](C(=O)O)[C@H](O)C(=O)O; Thr(4-Cl) = N[C@H](C(=O)O)[C@H](O)CCl; X1 = CCCCCCCCC[C@@H](O)CC(=O)*; dDab = NCC[C@@H](N)C(=O)O; Dab = NCC[C@H](N)C(=O)O; Dhb = C/C=C(\\N)C(=O)O",
  "data": [
    {"smiles": "C/C=C1\\NC(=O)[C@H](Cc2ccccc2)NC(=O)[C@H](CCCNC(=N)N)NC(=O)[C@H](CCN)NC(=O)[C@@H](CCN)NC(=O)[C@@H](CO)NC(=O)[C@@H](NC(=O)C[C@H](O)CCCCCCCCC)COC(=O)[C@H]([C@H](O)CCl)NC(=O)[C@H]([C@H](O)C(=O)O)NC1=O", "note": "[SRE, Syringomycin E] (X1-S[dS][dDab][Dab]RF[Dhb][Asp(3S-OH)][Thr(4-Cl)]; ester 1-C)", "values": [
      {"measurement": "growth inhibitory activity in mutants compared to wild type", "setting": "[1]", "result": "less in the mutants as compared to the wild type"},
      {"measurement": "antifungal activities, alone", "setting": "[2]", "result": "strong activity"},
      {"measurement": "Zone of Inhibition", "setting": "8A-1B; SRE alone 2.4 mg/ml", "result": 17.5, "unit": "mm"},
      {"measurement": "Zone of Inhibition", "setting": "8A-1B; SRE alone 5.6 mg/ml", "result": 19.0, "unit": "mm"},
      {"measurement": "Zone of Inhibition", "setting": "8A-1B; SRE alone 10.3 mg/ml", "result": 20.0, "unit": "mm"},
      {"measurement": "Zone of Inhibition", "setting": "W303C; SRE alone 2.4 mg/ml", "result": 26.0, "unit": "mm"},
      {"measurement": "Zone of Inhibition", "setting": "W303C; SRE alone 5.6 mg/ml", "result": 28.0, "unit": "mm"},
      {"measurement": "Zone of Inhibition", "setting": "W303C; SRE alone 10.3 mg/ml", "result": 29.0, "unit": "mm"},
      {"measurement": "Zone of Inhibition", "setting": "R.pilimanae; SRE alone 2.4 mg/ml", "result": 19.0, "unit": "mm"},
      {"measurement": "Zone of Inhibition", "setting": "R.pilimanae; SRE alone 5.6 mg/ml", "result": 21.5, "unit": "mm"},
      {"measurement": "Zone of Inhibition", "setting": "R.pilimanae; SRE alone 10.3 mg/ml", "result": 23.0, "unit": "mm"},
      {"measurement": "MIC", "setting": "Rhodotorula pilimanae", "result": 3.9, "unit": "µg/mL"},
      {"measurement": "MIC", "setting": "Rhizoctonia solani", "result": 3.9, "unit": "µg/mL"},
      {"measurement": "MIC", "setting": "Candida albicans", "result": 3.9, "unit": "µg/mL"},
      {"measurement": "MIC", "setting": "Cladosporium sp", "result": 3.9, "unit": "µg/mL"},
      {"measurement": "MIC", "setting": "Fusarium oxysporum", "result": 7.8, "unit": "µg/mL"},
      {"measurement": "MIC", "setting": "Botrytis sp", "result": 3.9, "unit": "µg/mL"},
      {"measurement": "MIC", "setting": "Aspergillus flavus", "result": 7.8, "unit": "µg/mL"},
      {"measurement": "MIC", "setting": "Penicillium sp1", "result": 7.8, "unit": "µg/mL"},
      {"measurement": "MIC", "setting": "Rhizopus stonifer", "result": 7.8, "unit": "µg/mL"},
      {"measurement": "MIC", "setting": "Penicillium sp2", "result": 7.8, "unit": "µg/mL"},
      {"measurement": "Zone of Inhibition", "setting": "BY4741; SRE alone 2.4 mg/ml", "result": 19.0, "unit": "mm"},
      {"measurement": "Zone of Inhibition", "setting": "BY4741; SRE alone 5.6 mg/ml", "result": 21.0, "unit": "mm"},
      {"measurement": "Zone of Inhibition", "setting": "BY4741; SRE alone 10.3 mg/ml", "result": 23.0, "unit": "mm"}
    ]}
  ]
}
